Test results reported in ChEMBL document CHEMBL1133958, “Derivatives of (2R,3R,4S)-2-aminomethylpyrrolidine-3,4-diol are selective alpha-mannosidase inhibitors” (Bioorg Med Chem Lett, 2001).
Activity calls are given as the source filed them. The rule behind the calls is not given here.

Experiments:
[1] = biological target: T1, Alpha-glucosidase (Oryza sativa Japonica Group) (UniProt Q9LGC6); test: Percentage inhibition of Alpha-glucosidase from Rice (maltase) at 1 mM; […]
T1 sequence (whole entry): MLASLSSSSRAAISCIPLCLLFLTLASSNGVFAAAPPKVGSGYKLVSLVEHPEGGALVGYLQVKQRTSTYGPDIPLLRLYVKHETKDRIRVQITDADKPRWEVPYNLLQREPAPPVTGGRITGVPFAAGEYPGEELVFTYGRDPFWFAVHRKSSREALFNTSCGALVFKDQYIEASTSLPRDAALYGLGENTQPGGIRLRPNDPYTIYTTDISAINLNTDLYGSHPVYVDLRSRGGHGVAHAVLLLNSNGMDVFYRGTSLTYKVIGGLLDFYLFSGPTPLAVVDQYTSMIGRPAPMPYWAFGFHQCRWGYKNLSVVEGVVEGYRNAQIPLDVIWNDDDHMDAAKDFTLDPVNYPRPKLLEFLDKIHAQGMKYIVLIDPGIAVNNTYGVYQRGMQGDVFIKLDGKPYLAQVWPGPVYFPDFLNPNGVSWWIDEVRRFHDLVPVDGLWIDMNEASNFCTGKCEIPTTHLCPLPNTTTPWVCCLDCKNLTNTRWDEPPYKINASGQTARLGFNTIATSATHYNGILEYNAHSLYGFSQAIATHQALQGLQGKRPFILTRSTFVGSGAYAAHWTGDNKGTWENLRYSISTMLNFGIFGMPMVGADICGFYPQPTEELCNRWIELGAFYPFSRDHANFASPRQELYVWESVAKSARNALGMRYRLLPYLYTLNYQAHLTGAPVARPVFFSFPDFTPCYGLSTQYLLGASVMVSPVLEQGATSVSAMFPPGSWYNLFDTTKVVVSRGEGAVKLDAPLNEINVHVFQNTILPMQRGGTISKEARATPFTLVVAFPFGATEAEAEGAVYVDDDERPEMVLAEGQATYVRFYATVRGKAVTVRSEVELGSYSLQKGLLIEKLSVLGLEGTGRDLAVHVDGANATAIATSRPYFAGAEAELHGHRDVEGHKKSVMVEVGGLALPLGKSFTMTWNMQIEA

Beta-galactosidase = biological target: T2, Beta-galactosidase (Bos taurus, UniProt Q58D55); test: Inhibitory activity towards Beta-galactosidase from Bovine liver
T2 sequence (Q58D55 whole entry): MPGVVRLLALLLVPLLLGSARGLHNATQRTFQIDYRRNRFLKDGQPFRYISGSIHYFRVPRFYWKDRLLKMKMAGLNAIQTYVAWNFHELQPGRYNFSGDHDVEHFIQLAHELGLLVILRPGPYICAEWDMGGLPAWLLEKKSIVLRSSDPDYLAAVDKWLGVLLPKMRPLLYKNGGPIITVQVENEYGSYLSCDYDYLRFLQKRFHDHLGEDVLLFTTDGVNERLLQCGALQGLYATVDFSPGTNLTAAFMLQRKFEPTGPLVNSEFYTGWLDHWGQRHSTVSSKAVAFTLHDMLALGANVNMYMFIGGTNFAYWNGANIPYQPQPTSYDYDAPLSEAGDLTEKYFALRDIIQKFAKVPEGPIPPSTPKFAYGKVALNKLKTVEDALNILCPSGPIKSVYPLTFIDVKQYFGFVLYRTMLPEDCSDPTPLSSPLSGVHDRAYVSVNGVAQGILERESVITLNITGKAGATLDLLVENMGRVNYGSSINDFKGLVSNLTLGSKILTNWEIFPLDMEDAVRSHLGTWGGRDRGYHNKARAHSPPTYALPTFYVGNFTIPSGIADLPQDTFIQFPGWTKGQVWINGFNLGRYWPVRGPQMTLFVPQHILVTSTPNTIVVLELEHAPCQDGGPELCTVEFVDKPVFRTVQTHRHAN

## OC1CNC(CNCC2CCN(Cc3ccccc3)CC2)C1O (configuration not stated)
[1]
  inhibition: inactive
Beta-galactosidase
  IC50: 770 µM
